The source of these data is ChEMBL document CHEMBL3301472, “MMV Malaria Box HIV and cytotoxicity screening”.

Holding throughout (assay type): toxicity, cell-based
Series [1] is described as follows: MMV: MTT Cytotoxicity Assay Day 7 pi of Assay #6 (compound washed out Day 1 pi), U87-CD4-CCR5 cells, % cell death @ 5mM compound. To be noted: human, u87-cd4-ccr5, 5000 µM.
The nature of series [2]: MMV: MTT Cytotoxicity Assay Day 7 pi of Assay #7 (compound washed out Day 1 pi), U87-CD4-CXCR4 cells, % cell death @ 5mM compound. To be noted: human, u87-cd4-cxcr4, 5000 µM.
Series [3] can be described thus: MMV: MTT Cytotoxicity Assay Day 7 pi of Assay #11 (NO washout), U87-CD4-CXCR4 cells, % cell death @ 5mM compound. To be noted: human, u87-cd4-cxcr4, 5000 µM.
Series [4] is described as follows: MMV: MTT Cytotoxicity Assay Day 3 pi, U87-CD4-CXCR4 cells, % cell death @ 5mM compound. To be noted: human, u87-cd4-cxcr4, 5000 µM.
The nature of series [5]: MMV: MTT Cytotoxicity Assay Day 3 pi, U87-CD4-CCR5 cells, % cell death @ 5mM compound. Conditions: human, u87-cd4-ccr5, 5000 µM.
Series [6] in a line: MMV: MTT Cytotoxicity Assay Day 7 pi of Assay #10 (NO washout), U87-CD4-CCR5 cells, % cell death @ 5mM compound. To be noted: human, u87-cd4-ccr5, 5000 µM.

For the compound `Oc1ccc2ccccc2c1CNc1nc2ccccc2[nH]1`, the “% Cell Death” value was -27 in series [1]; -22 in series [2]; 42 in series [3]; 32 in series [4]; 53 in series [5]; 36 in series [6].
Consider `COc1cccc(Nc2nc(NCCO)c3ccccc3n2)c1.Cl`, for which the “% Cell Death” value was 44 in series [1]; -16 in series [2]; 46 in series [3]; -1 in series [4]; 15 in series [5]; 3 in series [6].
As to `CCCCCCc1cc(O)c2c3c(c(=O)oc2c1)CCC(C)C3` (centres undefined), the “% Cell Death” value in series [1] was 16; in series [2], 16; in series [3], 9; in series [4], 20; in series [5], 16; in series [6], 26.
For `CCOc1ccc(CN2CCN(CC(O)COc3ccc(OCC(O)CN4CCN(Cc5ccc(OCC)cc5)CC4)cc3)CC2)cc1` (centres undefined), the “% Cell Death” value in series [1] was 65; in series [2], 21; in series [3], -7; in series [4], 50; in series [5], -5; in series [6], 115.
In the case of `COc1cc(SC)ccc1C(=O)N1CCCC(C)C1` (centres undefined), the “% Cell Death” value is given as 12 in series [1]; -26 in series [2]; -41 in series [3]; 28 in series [4]; 9 in series [5]; -5 in series [6].
Turning to `COc1cccc(C(=O)NC(c2ccc(C)cc2)c2cc(Cl)c3cccnc3c2O)c1` (centres undefined), the “% Cell Death” value in series [1] was 23; in series [2] it was -4; in series [3], -24; in series [4], 68; in series [5], 88; in series [6] it was 26.
Regarding `CN1c2ccccc2N(C)C1c1ccc2c(c1)OCO2`, the “% Cell Death” value is 10 in series [1]; 16 in series [2]; -2 in series [3]; 3 in series [4]; -7 in series [5]; 1 in series [6].
As to `c1ccc(Cn2c(N=Nc3c(Nc4ccccc4)ccc4ccccc34)nc3ccccc32)cc1`, the “% Cell Death” value in series [1] is listed as 95; in series [2], 99; in series [3], 101; in series [4], 97; in series [5], 92; in series [6], 83.
Consider `Cc1ccc(CN2CCC(C(=O)Nc3ccc(-c4cc5ccccc5[nH]4)cc3)CC2)o1`, for which the “% Cell Death” value in series [1] is 31; in series [2] it was 20; in series [3] it was 22; in series [4], 20; in series [5] it was 33; in series [6], 65.
For the compound `COc1ccc(-n2ccnc2SCC(=O)Nc2cc(C)ccc2C)c(OC)c1`, the “% Cell Death” value is 32 in series [1]; -16 in series [2]; 78 in series [3]; 54 in series [4]; 18 in series [5]; 71 in series [6].
For `CCCCNc1nc(NC(C)(C)C)nc(NC(C)(C)C)n1`, the “% Cell Death” value is given as 2 in series [1]; 18 in series [2]; -2 in series [3]; 61 in series [4]; -21 in series [5]; -7 in series [6].
For the compound `CCCCNCC(O)(c1ccc(Cl)cc1)c1ccc(Cl)cc1`, the “% Cell Death” value was 23 in series [1]; -18 in series [2]; 27 in series [3]; 29 in series [4]; 16 in series [5]; 11 in series [6].
Consider `CCn1nc(-c2ccc(C(=O)OC)cc2)nc2c(=O)n(C)c(=O)nc1-2`, for which the “% Cell Death” value in series [1] is given as 6; in series [2] it was -23; in series [3] it was 18; in series [4], 21; in series [5] it was 1; in series [6] it was -2.
`Oc1ccc(C(=C(Cl)Cl)c2ccc(O)cc2)cc1`: the “% Cell Death” value in series [1] is -14; in series [2], 36; in series [3], 103; in series [4] it was 75; in series [5] it was 80; in series [6], 84.
On to `COc1ccc(-c2cn3c(C(=O)Nc4ccccc4Cl)c(-c4ccccc4)c4c3n2CCCC4)cc1`, for which the “% Cell Death” value is listed as -4 in series [1]; -5 in series [2]; -35 in series [3]; 35 in series [4]; -20 in series [5]; 30 in series [6].
`O=C(Nc1ccc(CN2CCOCC2)cc1)c1ccc(-c2cc(Cl)ccc2Cl)o1`: the “% Cell Death” value is reported as -8 in series [1]; -21 in series [2]; 36 in series [3]; 28 in series [4]; -2 in series [5]; 41 in series [6].
Take `CC(=O)c1sc(NC(=O)Nc2ccc(C)cc2C)nc1C`: the “% Cell Death” value is -30 in series [1]; -18 in series [2]; 20 in series [3]; 45 in series [4]; -1 in series [5]; 31 in series [6].
Consider `COc1cccc(Nc2nc(N)c3ccccc3n2)c1.Cl`, for which the “% Cell Death” value in series [1] is reported as 13; in series [2], -5; in series [3] it was -77; in series [4] it was 22; in series [5], -31; in series [6] it was -2.
As to `CC1CCCCN1CCCNC(=O)c1ccc2c(c1)sc1nc(-c3ccc(F)cc3)cn12` (centres undefined), the “% Cell Death” value is 29 in series [1]; -50 in series [2]; 61 in series [3]; 0 in series [4]; -29 in series [5]; -20 in series [6].
As to `CCOc1ccc(-n2cc(-c3ccccc3)c3c(SCc4cc(C)ccc4C)ncnc32)cc1`, the “% Cell Death” value in series [1] was 11; in series [2], -9; in series [3], 11; in series [4] it was 29; in series [5] it was 3; in series [6], -1.
In the case of `COc1ccc(C2=C(c3ccc(OC)cc3)C3(c4ccccc4)C(=O)C2(c2ccccc2)C2C(=O)N(c4ccc(C)cc4)C(=O)C23)cc1` (centres undefined), the “% Cell Death” value is -10 in series [1]; 13 in series [2]; -6 in series [3]; 28 in series [4]; -42 in series [5]; 41 in series [6].
Turning to `C[n+]1c2ccccc2nc2ccc(NCCO)cc21`, the “% Cell Death” value in series [1] is 29; in series [2], -30; in series [3], 16; in series [4], 11; in series [5], -33; in series [6], 49.
In the case of `CN(C)c1ccc(C(O)(c2ccc(N(C)C)cc2)c2ccc(N(C)C)cc2)cc1` [METHYLROSANILINE], the “% Cell Death” value is on record as 3 in series [1]; -2 in series [2]; 71 in series [3]; 98 in series [4]; 2 in series [5]; 23 in series [6].
`O=C(Nc1ccc(F)c(Cl)c1)Nc1ccc(Cl)c(Cl)c1`: the “% Cell Death” value in series [1] is listed as -6; in series [2], -9; in series [3], -12; in series [4], 4; in series [5], -19; in series [6], 22.
For `Cc1cc(Nc2ccc(OCc3ccccc3)cc2)nc2cc(O)ccc12`, the “% Cell Death” value in series [1] is 18; in series [2] it was 6; in series [3] it was -7; in series [4], -46; in series [5], 23; in series [6], -10.
As for `C=C(C)CCC(C)N1CCC(N2CCC(C(=O)NCCc3ccccc3)CC2)CC1` (centres undefined), the “% Cell Death” value in series [1] is 23; in series [2], -27; in series [3] it was -11; in series [4] it was 3; in series [5], -11; in series [6], 11.
Regarding `N#Cc1nc(Cc2cccc3ccccc23)oc1N1CCN(C(c2ccccc2)c2ccccc2)CC1`, the “% Cell Death” value in series [1] is 78; in series [2] it was 93; in series [3], -30; in series [4] it was 101; in series [5], 112; in series [6], 109.
In the case of `CCN(CC)CCNc1ncnc2c1[nH]c1ccc(Br)cc12`, the “% Cell Death” value is reported as -1 in series [1]; -18 in series [2]; -18 in series [3]; 24 in series [4]; -7 in series [5]; 15 in series [6].
As to `COc1ccc(-c2cc3c(nn2)-c2ccccc2C3=O)cc1`, the “% Cell Death” value in series [1] was 30; in series [2] it was 13; in series [3] it was 101; in series [4], 49; in series [5], 71; in series [6], 75.
